From PubChem BioAssay (NCI)
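Grown in 96-well plates, cells were treated for 48 hours with each compound at five concentrations. Insufficient inhibition: endpoint recorded as highest concentration tested. GI50: concentration for 50% inhibition of growth. Definition used: TGI = concentration required for complete inhibition of growth.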

What was measured:
Assay in all cases: growth of human tumour cells (NCI), 48 h
[1] = test system: A498 renal
[2] = test system: TK-10 renal
[3] = test system: OVCAR-4 ovarian
[4] = test system: SF-295 CNS
[5] = test system: UACC-62 melanoma
[6] = test system: U251 CNS
[7] = test system: SK-MEL-28 melanoma
[8] = test system: SNB-75 CNS
[9] = test system: MDA-MB-435
[10] = test system: CAKI-1 renal
[11] = test system: RXF 393 renal
[12] = test system: HCT-15 colon
[13] = test system: MALME-3M melanoma
[14] = test system: BT-549 breast
[15] = test system: NCI-H226 lung
[16] = test system: SK-OV-3 ovarian
[17] = test system: OVCAR-8 ovarian
[18] = test system: HT29 colon
[19] = test system: HOP-62 NSCLC
[20] = test system: UO-31 renal
[21] = test system: A549 NSCLC
[22] = test system: MDA-MB-231 breast
[23] = test system: RPMI-8226 leukemia
[24] = test system: K-562 leukemia
[25] = test system: ACHN renal
[26] = test system: MCF7 breast
[27] = test system: M14 melanoma
[28] = test system: COLO 205 colon
[29] = test system: SF-268 CNS
[30] = test system: SNB-19 CNS
[31] = test system: 786-0 renal
[32] = test system: NCI-H460 lung
[33] = test system: HCT-116 colon
[34] = test system: LOX IMVI melanoma
[35] = test system: HL-60(TB) leukemia
[36] = test system: NCI-H23 lung
[37] = test system: SK-MEL-2 melanoma
[38] = test system: SK-MEL-5 melanoma
[39] = test system: OVCAR-5 ovarian
[40] = test system: UACC-257 melanoma
[41] = test system: EKVX NSCLC
[42] = test system: MDA-MB-468 breast
[43] = test system: NCI-H522 lung
[44] = test system: HS 578T breast
[45] = test system: HOP-92 NSCLC
[46] = test system: MOLT-4 leukemia
[47] = test system: SF-539 CNS
[48] = test system: KM12 colon
[49] = test system: T-47D breast
[50] = test system: SR leukemia
[51] = test system: NCI/ADR-RES ovarian
[52] = test system: IGROV1 ovarian
[53] = test system: DU-145 prostate
[54] = test system: SW-620 colon
[55] = test system: CCRF-CEM leukemia
[56] = test system: HCC-2998 colon
[57] = test system: PC-3 prostate
[58] = test system: OVCAR-3 ovarian
[59] = test system: SN12C renal

For `CN1CCN(c2ccc3c(c2)nc(NNC(=O)c2ncccn2)c2cccn23)CC1`, the GI50 [1] was 1720 nM, the TGI [1] was 3320 nM and the GI50 [2] was 489 nM. The TGI [2] was 3050 nM, the GI50 [3] was 725 nM and the TGI [3] was 4100 nM. The GI50 [4] was 622 nM, the TGI [4] was 2960 nM and the GI50 [5] was 828 nM. For the same compound, the TGI [5] was 3450 nM, the GI50 [6] was 514 nM and the TGI [6] was 3940 nM. It also gave a GI50 [7] of 849 nM, a TGI [7] of 9030 nM and a GI50 [8] of 610 nM. It also gave a TGI [8] of 11400 nM, a GI50 [9] of 1780 nM and a TGI [9] of 13500 nM. For the same compound, the GI50 [10] was 782 nM, the TGI [10] was 7620 nM and the GI50 [11] was 1430 nM. For the same compound, the TGI [11] was 3990 nM, the GI50 [12] was 762 nM and the TGI [12] was 5250 nM. For the same compound, the GI50 [13] was 1380 nM, the TGI [13] was 4290 nM and the GI50 [14] was 856 nM. It also gave a TGI [14] of 2820 nM, a GI50 [15] of 929 nM and a TGI [15] of 2630 nM. The GI50 [16] was 459 nM, the TGI [16] was 1830 nM and the GI50 [17] was 655 nM. The TGI [17] was 2380 nM, the GI50 [18] was 628 nM and the TGI [18] was 2340 nM. It also gave a GI50 [19] of 453 nM, a TGI [19] of 3200 nM and a GI50 [20] of 677 nM. The TGI [20] was 4070 nM, the GI50 [21] was 1700 nM and the TGI [21] was 11300 nM. It also gave a GI50 [22] of 902 nM, a TGI [22] of 3990 nM and a GI50 [23] of 2980 nM. The TGI [23] was 13300 nM, the GI50 [24] was 1880 nM and the TGI [24] was greater than 32400 nM. The GI50 [25] was 712 nM, the TGI [25] was 6010 nM and the GI50 [26] was 1980 nM. For the same compound, the TGI [26] was 9750 nM, the GI50 [27] was 611 nM and the TGI [27] was 3000 nM. The GI50 [28] was 476 nM, the TGI [28] was 1720 nM and the GI50 [29] was 594 nM. The TGI [29] was 11900 nM, the GI50 [30] was 966 nM and the TGI [30] was 12500 nM. For the same compound, the GI50 [31] was 795 nM, the TGI [31] was 2110 nM and the GI50 [32] was 1220 nM. The TGI [32] was 10500 nM, the GI50 [33] was 347 nM and the TGI [33] was 2610 nM. The GI50 [34] was 383 nM, the TGI [34] was 2640 nM and the GI50 [35] was 556 nM. It also gave a TGI [35] of 4820 nM, a GI50 [36] of 1890 nM and a TGI [36] of 10100 nM. For the same compound, the GI50 [37] was 1280 nM, the TGI [37] was 4210 nM and the GI50 [38] was 1160 nM. It also gave a TGI [38] of 3170 nM, a GI50 [39] of 1370 nM and a TGI [39] of 5800 nM. It also gave a GI50 [40] of 2280 nM, a TGI [40] of 6250 nM and a GI50 [41] of 529 nM. It also gave a TGI [41] of 3960 nM, a GI50 [42] of 408 nM and a TGI [42] of 1820 nM. It also gave a GI50 [43] of 927 nM, a TGI [43] of 5310 nM and a GI50 [44] of 3010 nM. For the same compound, the TGI [44] was 34500 nM, the GI50 [45] was 482 nM and the TGI [45] was 2460 nM. For the same compound, the GI50 [46] was 435 nM, the TGI [46] was 15600 nM and the GI50 [47] was 1090 nM. For the same compound, the TGI [47] was 4200 nM, the GI50 [48] was 630 nM and the TGI [48] was 12800 nM. It also gave a GI50 [49] of 1660 nM, a TGI [49] of 5780 nM and a GI50 [50] of 433 nM. It also gave a TGI [50] of 11600 nM, a GI50 [51] of 2570 nM and a TGI [51] of 9440 nM. For the same compound, the GI50 [52] was 1670 nM, the TGI [52] was 11000 nM and the GI50 [53] was 1250 nM. The TGI [53] was 11000 nM, the GI50 [54] was 855 nM and the TGI [54] was 3830 nM. The GI50 [55] was 224 nM, the TGI [55] was 2100 nM and the GI50 [56] was 706 nM. It also gave a TGI [56] of 3000 nM, a GI50 [57] of 344 nM and a TGI [57] of 4120 nM. For the same compound, the GI50 [58] was 704 nM, the TGI [58] was 4420 nM and the GI50 [59] was 1390 nM. For the same compound, the TGI [59] was 10800 nM.
